Data on three compounds can be found in US20150105252A1, “SUBSTITUTED PYRAZOLES AS HERBICIDES” (E I DU PONT DE NEMOURS AND COMPANY, priority 2013, published 2015).

Structures are written as SMILES.

The subject of assay [1] is morningglory. Briefly: Test A preemergence. Format: in vivo, Ipomoea spp. The conditions noted are these: 0 to 100 scale. From the text:
(§1) Seeds of plant species selected from barnyardgrass (Echinochloa crus-galli), kochia (Kochia scoparia), common ragweed (Ambrosia elation), Italian ryegrass (Lolium multiflorum), crabgrass, large (large crabgrass, Digitaria sanguinalis), foxtail, giant (giant foxtail, Setaria faberii), morningglory (Ipomoea spp.), pigweed (redroot pigweed, Amaranthus retroflexus), velvetleaf (Abutilon theophrasti), wheat (Triticum aestivum), and corn (Zea mays) were planted into a blend of loam soil and sand and treated preemergence with a directed soil spray using test chemicals formulated in a non-phytotoxic solvent mixture which included a surfactant.
(§2) At the same time, plants selected from these crop and weed species and also blackgrass (Alopecurus myosuroides), and galium (catchweed bedstraw, Galium aparine) were planted in pots containing the same blend of loam soil and sand and treated with postemergence applications of test chemicals formulated in the same manner. Plants ranged in height from 2 to 10 cm and were in the one- to two-leaf stage for the postemergence treatment. Treated plants and untreated controls were maintained in a greenhouse for approximately 10 days, after which time all treated plants were compared to untreated controls and visually evaluated for injury. Plant response ratings, summarized in Table A, are based on a 0 to 100 scale where 0 is no effect and 100 is complete control. A dash (-) response means no test result.

Assay [2] concerns barnyardgrass. Briefly: Test A preemergence. Format: in vivo, Echinochloa crus-galli. The note with it: 0 to 100 scale. Put shortly:
(§3)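 Visual injury ratings, 0 = no effect to 100 = complete control, taken about 10 days after treatment against untreated controls. Test chemicals, in a non-phytotoxic surfactant-containing solvent, were sprayed onto soil preemergence or onto one- to two-leaf plants (2–10 cm) postemergence, in loam–sand soil under greenhouse conditions.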

Assay [3] deals with foxtail, giant. The assay can be described thus: Test A postemergence. Format: in vivo, Setaria faberii. Put shortly: as §3
Assay [4] has as its system pigweed. The assay can be described thus: Test A postemergence. Format: in vivo, Amaranthus retroflexus.
Text: as §1, §2

The subject of assay [5] is wheat. The assay can be described thus: Test A postemergence. Format: in vivo, Triticum aestivum. Put shortly:
as §3

Assay [6] relates to wheat. The assay can be described thus: Test A preemergence. Format: in vivo, Triticum aestivum. The note with it: 0 to 100 scale. Put shortly:
as §3

Assay [7] has as its system crabgrass, large. The assay can be described thus: Test A postemergence. Format: in vivo, Digitaria sanguinalis. Put shortly: as §3
The test system of assay [8] is barnyardgrass. Briefly: Test A postemergence. Format: in vivo, Echinochloa crus-galli. The note with it: Postemergence. Put shortly: as §3
The subject of assay [9] is morningglory. Briefly: Test A postemergence. Format: in vivo, Ipomoea spp.
Text: as §1, §2

The test system of assay [10] is foxtail, giant. The assay can be described thus: Test A preemergence. Format: in vivo, Setaria faberii. The conditions noted are these: 0 to 100 scale. Put shortly:
as §3

In assay [11] the test system is velvetleaf. The assay can be described thus: Test A postemergence. Format: in vivo, Abutilon theophrasti. Put shortly: as §3
In assay [12] the test system is corn. The assay can be described thus: Test A postemergence. Format: in vivo, Zea mays. Put shortly:
as §3

The subject of assay [13] is velvetleaf. Briefly: Test A preemergence. Format: in vivo, Abutilon theophrasti. The conditions noted are these: 0 to 100 scale. Put shortly: as §3
Assay [14] concerns crabgrass, large. Briefly: Test A preemergence. Format: in vivo, Digitaria sanguinalis. The conditions noted are these: 0 to 100 scale.
Text: as §1, §2

For assay [15], the system named is corn. The assay can be described thus: Test A preemergence. Format: in vivo, Zea mays. The note with it: 0 to 100 scale. Put shortly: as §3
Assay [16] relates to pigweed. Briefly: Test A preemergence. The conditions noted are these: 0 to 100 scale. Format: in vivo, Amaranthus retroflexus. Put shortly: as §3
The mark [17] stands for this setting: Preemergence, 500 g ai/ha, 0 no effect, 100 complete control.
The mark [18] stands for this setting: preemergence, 125 g ai/ha, visual injury, approx. 10 days.
Where [19] appears, read: Postemergence, 500 g ai/ha, visual rating after approx. 10 days, 0 to 100 scale (0 no effect, 100 complete control).
[20] abbreviates: postemergence, 125 g ai/ha, about 10 days, visual rating on 0 to 100 scale (0 no effect, 100 complete control).
Where [21] appears, read: Preemergence, 1000 g ai/ha, 0 no effect, 100 complete control.
The mark [22] stands for this setting: Postemergence, 1000 g ai/ha, visual rating after approx. 10 days, 0 to 100 scale (0 no effect, 100 complete control).
Where [23] appears, read: 1000 g ai/ha, visual rating after approx. 10 days, 0 to 100 scale (0 no effect, 100 complete control).

With `Cc1cc(C(=O)NC2CC2)nn1Cc1cc(F)cc(C(F)(F)F)c1` [Compound 14], the “Morningglory plant response rating” value with morningglory [1] (setting [17]) is 20; with morningglory [1] (setting [18]) it was 0; in the assay with morningglory [9] (setting [19]), 80; with morningglory [9] (setting [20]), 50. Moreover, the “Barnyardgrass plant response rating” value in the assay with barnyardgrass [2] (setting [17]) is reported as 10; in the assay on barnyardgrass [2] (setting [18]), 0; in the assay with barnyardgrass [8] (125 g ai/ha, 0 to 100 scale, 0 no effect, 100 complete control), 0; in the assay with barnyardgrass [8] (500 g ai/ha, visual rating after approx. 10 days, 0 to 100 scale (0 no effect, 100 complete control)), 10. In addition, the “Foxtail, Giant plant response rating” value worked out at 20 in the assay with foxtail, giant [3] (setting [19]); 0 with foxtail, giant [3] (setting [20]); 90 in the assay on foxtail, giant [10] (setting [17]); 10 in the assay with foxtail, giant [10] (setting [18]). Besides, the “Pigweed plant response rating” value with pigweed [4] (setting [19]) turned out to be 70; with pigweed [4] (setting [20]) it was 50; with pigweed [16] (setting [17]), 100; with pigweed [16] (setting [18]) it was 100. In addition, the “Wheat plant response rating” value in the assay with wheat [5] (setting [19]), with wheat [5] (setting [20]) and in the assay on wheat [6] (setting [18]) was 0 each time. Besides, the “Crabgrass, Large plant response rating” value in the assay with crabgrass, large [7] (setting [19]) is 40; in the assay with crabgrass, large [7] (setting [20]), 20; in the assay on crabgrass, large [14] (setting [17]), 90; with crabgrass, large [14] (setting [18]) it was 10. The “Velvetleaf plant response rating” value with velvetleaf [11] (setting [19]) amounted to 30; in the assay with velvetleaf [11] (setting [20]), 20; in the assay with velvetleaf [13] (setting [17]), 0; with velvetleaf [13] (setting [18]) it was 0. Also, the “Corn plant response rating” value was determined as 10 with corn [12] (setting [19]), 0 with corn [12] (setting [20]), 0 in the assay with corn [15] (setting [17]) and 0 in the assay on corn [15] (setting [18]).
As for `CCNC(=O)c1cc(CC)n(Cc2cccc(C(F)(F)F)c2)n1` [Compound 17], the “Morningglory plant response rating” value is recorded as 80 in the assay with morningglory [1] (setting [21]) and 100 with morningglory [9] (setting [22]). Further, the “Barnyardgrass plant response rating” value worked out at 80 in the assay on barnyardgrass [2] (setting [21]) and 40 in the assay on barnyardgrass [8] (setting [23]). Also, the “Foxtail, Giant plant response rating” value is 90 in the assay with foxtail, giant [3] (setting [22]) and 100 in the assay with foxtail, giant [10] (setting [21]). Also, the “Pigweed plant response rating” value in the assay on pigweed [4] (setting [22]) is 90; in the assay on pigweed [16] (setting [21]), 100. Besides, the “Wheat plant response rating” value was 30 in the assay with wheat [5] (setting [22]) and 20 in the assay on wheat [6] (setting [21]). For the same compound, the “Crabgrass, Large plant response rating” value is listed as 90 with crabgrass, large [7] (setting [22]) and 100 in the assay with crabgrass, large [14] (setting [21]). The “Velvetleaf plant response rating” value with velvetleaf [11] (setting [22]) and with velvetleaf [13] (setting [21]) was 100 in each case. Besides, the “Corn plant response rating” value in the assay with corn [12] (setting [22]) is reported as 40; in the assay on corn [15] (setting [21]), 10.
Consider `CCc1cc(C(=O)NCC(F)(F)F)nn1Cc1cccc(C(F)(F)F)c1` [Compound 18], for which the “Morningglory plant response rating” value is reported as 70 in the assay with morningglory [1] (setting [21]) and 100 with morningglory [9] (setting [22]). For the same compound, the “Barnyardgrass plant response rating” value stood at 80 in the assay with barnyardgrass [2] (setting [21]) and 50 in the assay on barnyardgrass [8] (setting [23]). In addition, the “Foxtail, Giant plant response rating” value was 90 with foxtail, giant [3] (setting [22]) and 100 with foxtail, giant [10] (setting [21]). For the same compound, the “Pigweed plant response rating” value in the assay on pigweed [4] (setting [22]) and in the assay with pigweed [16] (setting [21]) was 90 in each case. For the same compound, the “Wheat plant response rating” value with wheat [5] (setting [22]) and in the assay with wheat [6] (setting [21]) was 40 throughout. The “Crabgrass, Large plant response rating” value was 90 in the assay with crabgrass, large [7] (setting [22]) and 100 in the assay with crabgrass, large [14] (setting [21]). Further, the “Velvetleaf plant response rating” value in the assay with velvetleaf [11] (setting [22]) and in the assay with velvetleaf [13] (setting [21]) was 100 each time. For the same compound, the “Corn plant response rating” value in the assay on corn [12] (setting [22]) is recorded as 70; in the assay with corn [15] (setting [21]), 30.
